Results: ChEMBL document CHEMBL1201862, “PubChem BioAssay data set” (2004)
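Grown in 96-well plates, cells were treated for 48 hours with each compound at five concentrations. Insufficient inhibition: endpoint recorded as highest concentration tested. GI50 marks 50% less growth.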 The source made the active and inactive calls. No stated cut-off is given here; in the data, active = GI50 up to about 1.1 µM and inactive = higher.

How the values were obtained:
Assay in all cases: inhibition of tumour cell growth, NCI panel, 48 h
786-0 = tested on: 786-0
HCC 2998 = tested on: HCC 2998
HOP-92 = tested on: HOP-92
Hs-578T = tested on: Hs-578T
LOX IMVI = tested on: LOX IMVI
MDA-N = tested on: MDA-N
NCI-H226 = tested on: NCI-H226
NCI-H460 = tested on: NCI-H460
NCI-H522 = tested on: NCI-H522
OVCAR-8 = tested on: OVCAR-8
PC-3 = tested on: PC-3
RXF 393 = tested on: RXF 393
SF-295 = tested on: SF-295
SK-MEL-28 = tested on: SK-MEL-28
SK-OV-3 = tested on: SK-OV-3
SN12C = tested on: SN12C
SR = tested on: SR
SW-620 = tested on: SW-620
UACC-62 = tested on: UACC-62

Measured: GI50

COc1ccc(/N=N/c2ccc3oc(=O)c(C(=O)Nc4ccccc4C)cc3c2)cc1
inactive: 786-0 > 10 µM | HCC 2998 > 10 µM | HOP-92 > 10 µM | Hs-578T > 10 µM | LOX IMVI > 10 µM | MDA-N > 10 µM | NCI-H226 > 10 µM | NCI-H460 > 10 µM | NCI-H522 > 10 µM | OVCAR-8 > 10 µM | PC-3 > 10 µM | RXF 393 > 10 µM | SF-295 > 10 µM | SK-MEL-28 > 10 µM | SK-OV-3 > 10 µM | SN12C > 10 µM | SR > 10 µM | SW-620 > 10 µM

CN1CCN(c2nc3ccccc3nc2C(=O)c2ccc(Cl)cc2)CC1
inactive: 786-0 33.1 µM | HCC 2998 33.7 µM | HOP-92 26.5 µM | Hs-578T 56.2 µM | LOX IMVI 40.6 µM | MDA-N 36.9 µM | NCI-H460 27.1 µM | NCI-H522 38.1 µM | OVCAR-8 69 µM | PC-3 51.2 µM | RXF 393 24.5 µM | SF-295 36.3 µM | SK-MEL-28 50.7 µM | SK-OV-3 > 100 µM | SR 47.4 µM | SW-620 61 µM | UACC-62 28.5 µM

c1ccc(-n2nc3ccc4nonc4c3n2)cc1
inactive: 786-0 > 100 µM | HCC 2998 > 100 µM | HOP-92 > 100 µM | LOX IMVI > 100 µM | MDA-N > 100 µM | NCI-H460 > 100 µM | OVCAR-8 > 100 µM | PC-3 > 100 µM | RXF 393 > 100 µM | SF-295 > 100 µM | SK-MEL-28 > 100 µM | SK-OV-3 > 100 µM | SN12C > 100 µM | SR > 100 µM | SW-620 > 100 µM | UACC-62 > 100 µM

C[C@]12CCC(O)CC1=CC[C@@H]1[C@@H]2CC[C@]2(C)C(=O)[C@H](n3ccnc3)C[C@@H]12 (stereo not given in full)
inactive: 786-0 > 100 µM | HOP-92 > 100 µM | Hs-578T > 100 µM | LOX IMVI 44.5 µM | MDA-N 57.4 µM | NCI-H226 > 100 µM | NCI-H460 40.9 µM | NCI-H522 33.5 µM | OVCAR-8 37.4 µM | PC-3 28.6 µM | RXF 393 > 100 µM | SF-295 94.8 µM | SK-MEL-28 79.4 µM | SN12C > 100 µM | SR 32.4 µM | SW-620 > 100 µM | UACC-62 47.5 µM

N#CC(C(=O)CCC(=O)C(C#N)c1ccccc1)c1ccccc1 (stereo not given)
inactive: 786-0 > 100 µM | HCC 2998 > 100 µM | HOP-92 > 100 µM | LOX IMVI > 100 µM | NCI-H226 > 100 µM | NCI-H460 > 100 µM | NCI-H522 > 100 µM | OVCAR-8 > 100 µM | RXF 393 > 100 µM | SF-295 > 100 µM | SK-MEL-28 > 100 µM | SK-OV-3 > 100 µM | SN12C > 100 µM | SR > 100 µM | SW-620 > 100 µM | UACC-62 > 100 µM

CCOC(=O)/C(=C\NC(=S)Nc1ccc(Cl)c(Cl)c1)C(=O)c1ccccc1
inactive: 786-0 58.6 µM | HCC 2998 17.3 µM | Hs-578T 2.11 µM | LOX IMVI 69.7 µM | MDA-N 27.2 µM | NCI-H226 13.9 µM | NCI-H460 42.1 µM | NCI-H522 6.3 µM | OVCAR-8 47.6 µM | PC-3 21.5 µM | RXF 393 21.6 µM | SF-295 33.6 µM | SK-MEL-28 53.2 µM | SK-OV-3 36.2 µM | SN12C 46.5 µM | SR 20.4 µM | SW-620 39.2 µM | UACC-62 32.3 µM

CCOC(=O)CCC(NC(=O)c1ccc(/N=C/c2nc3cc(C(F)(F)F)ccc3nc2-c2ccccc2)cc1)C(=O)OCC (stereo not given)
inactive: 786-0 7.38 µM | HCC 2998 > 50 µM | HOP-92 4.88 µM | LOX IMVI 14.4 µM | NCI-H226 > 50 µM | NCI-H460 24 µM | NCI-H522 12.3 µM | OVCAR-8 7.33 µM | PC-3 > 50 µM | RXF 393 7.14 µM | SF-295 9.84 µM | SK-MEL-28 > 50 µM | SK-OV-3 8.77 µM | SN12C > 50 µM | SR > 50 µM | SW-620 > 50 µM | UACC-62 12.2 µM

NC(=O)c1c2c(cc3c(=O)c4ccccc4[nH]c13)CCCC2
inactive: 786-0 > 69.3 µM | HCC 2998 > 100 µM | HOP-92 > 100 µM | LOX IMVI > 100 µM | NCI-H226 > 100 µM | NCI-H460 > 100 µM | NCI-H522 > 100 µM | OVCAR-8 > 97.3 µM | RXF 393 > 100 µM | SF-295 > 100 µM | SK-MEL-28 > 100 µM | SK-OV-3 > 100 µM | SN12C > 100 µM | SR > 100 µM | SW-620 > 100 µM | UACC-62 > 100 µM

C=CCC(NCc1ccccc1)[C@H](OCc1ccccc1)[C@@H]1COC(C)(C)O1 (stereo not given in full)
inactive: 786-0 30.4 µM | HOP-92 12.7 µM | Hs-578T 24.7 µM | LOX IMVI 26 µM | MDA-N 31.8 µM | NCI-H226 15.6 µM | OVCAR-8 35.2 µM | PC-3 31.9 µM | SF-295 27.8 µM | SK-MEL-28 47.1 µM | SK-OV-3 79.3 µM | SN12C 43.4 µM | SR 21.1 µM | SW-620 41.9 µM | UACC-62 40.6 µM
